Source: article PMC9688344, “[^225Ac]Ac-SibuDAB for Targeted Alpha Therapy of Prostate Cancer: Preclinical Evaluation and Comparison with [^225Ac]Ac-PSMA-617” (Cancers, 2022)

Test system: human serum albumin
Assay: Albumin binding, ultrafiltration assay in human blood plasma
Type: in vitro ADME
Description: The logD values, cell uptake and internalization as well as PSMA-binding affinities (KD values) of [^225Ac]Ac-SibuDAB and [^225Ac]Ac-PSMA-617 (~50 kBq/nmol) were determined according to previously reported protocols (Supplementary Material: Sections S3–S5). Relative albumin-binding affinities were determined using an ultrafiltration assay according to an adapted version of a recently published protocol (Supplementary Material: Section S6).
Table S1. PSMA-binding affinity expressed as KD values determined for SibuDAB and PSMA-617 labeled with actinium-225 or lutetium-177.
Radioligand KD Value [nM] 95% Confidence interval n […]
Purpose: The affinity of [225Ac]Ac-SibuDAB to serum albumin in mouse and human blood plasma was assessed and compared to that of [177Lu]Lu-SibuDAB to determine the impact of the radionuclide on the albumin-binding properties of SibuDAB.
Methods: Relative albumin-binding affinities were determined using an ultrafiltra-tion assay according to a slightly adapted version of a published protocol. The concen-tration of mouse serum albumin (MSA) and human serum albumin (HSA) in samples of mouse and human plasma, respectively, was determined using a DRI-CHEM Analyzer (FUJIFILM, 4000i). […] The activity in the retained protein fraction (A bound), in the filtrate (Afiltrate) and in the filter unit (Afilter) were measured separately in a γ-counter (Perkin Elmer Wallac Wizard 1480). […]

CC(C)Cc1ccc(C(C)C(=O)NC(CCN)C(=O)NCCCCC(NC(=O)CN2CCN(CC(=O)[O-])CCN(CC(=O)[O-])CCN(CC(=O)[O-])CC2)C(=O)NCC2CCC(C(=O)NC(Cc3ccc4ccccc4c3)C(=O)NCCCCC(NC(=O)NC(CCC(=O)O)C(=O)O)C(=O)O)CC2)cc1.[225Ac+3] (stereo not shown) [[^225Ac]Ac-SibuDAB]
relative albumin-binding affinity, higher than for [177Lu]Lu-SibuDAB: 1.4 fold
